Laboratory results as given in the supplement of paper PMC10307832.

Legend:
Assay in all cases: relative viability (nuclei count vs DMSO), 5 days (fraction); higher = more cells survive
Venetoclax + Pictilisib = compound: CC1(C)CCC(CN2CCN(c3ccc(C(=O)NS(=O)(=O)c4ccc(NCC5CCOCC5)c([N+](=O)[O-])c4)c(Oc4cnc5[nH]ccc5c4)c3)CC2)=C(c2ccc(Cl)cc2)C1 [Venetoclax] + CS(=O)(=O)N1CCN(Cc2cc3nc(-c4cccc5[nH]ncc45)nc(N4CCOCC4)c3s2)CC1 [Pictilisib] (partner 1 µM)
Procedure, shortened: (§1)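 One day after seeding in 1536-well plates, lung cancer cell lines were dosed by pin tool. Dosing was either single-drug or a fixed anchor-drug dose plus five library-drug doses (not always all listed) in √10 steps. After 5 days, nuclei were stained in one fix-and-stain step and counted on 4× images, and relative viability is the nuclei count of treated wells over that of vehicle wells, given as the median of duplicate plates.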

Selumetinib + Lapatinib = compound: Cn1cnc2c(F)c(Nc3ccc(Br)cc3Cl)c(C(=O)NOCCO)cc21 [Selumetinib] + CS(=O)(=O)CCNCc1ccc(-c2ccc3ncnc(Nc4ccc(OCc5cccc(F)c5)c(Cl)c4)c3c2)o1 [Lapatinib] (partner 2 µM)
Procedure, shortened: as §1

Venetoclax + Lapatinib = compound: CC1(C)CCC(CN2CCN(c3ccc(C(=O)NS(=O)(=O)c4ccc(NCC5CCOCC5)c([N+](=O)[O-])c4)c(Oc4cnc5[nH]ccc5c4)c3)CC2)=C(c2ccc(Cl)cc2)C1 [Venetoclax] + CS(=O)(=O)CCNCc1ccc(-c2ccc3ncnc(Nc4ccc(OCc5cccc(F)c5)c(Cl)c4)c3c2)o1 [Lapatinib] (partner 2 µM)
Procedure, shortened: as §1

Selumetinib + Alpelisib = compound: Cn1cnc2c(F)c(Nc3ccc(Br)cc3Cl)c(C(=O)NOCCO)cc21 [Selumetinib] + Cc1nc(NC(=O)N2CCC[C@H]2C(N)=O)sc1-c1ccnc(C(C)(C)C(F)(F)F)c1 [Alpelisib] (partner 2 µM)
Procedure, shortened: as §1

Cell Line	relative viability (Venetoclax + Pictilisib; first compound 0.01 µM)	relative viability (Venetoclax + Pictilisib; first compound 0.03162 µM)	relative viability (Venetoclax + Pictilisib; first compound 0.1 µM)	relative viability (Venetoclax + Pictilisib; first compound 0.3162 µM)	relative viability (Venetoclax + Pictilisib; first compound 1 µM)	relative viability (Selumetinib + Lapatinib; first compound 0.02 µM)	relative viability (Selumetinib + Lapatinib; first compound 0.06325 µM)	relative viability (Selumetinib + Lapatinib; first compound 0.2 µM)	relative viability (Selumetinib + Lapatinib; first compound 0.6325 µM)	relative viability (Venetoclax + Lapatinib; first compound 0.01 µM)	relative viability (Venetoclax + Lapatinib; first compound 0.03162 µM)	relative viability (Venetoclax + Lapatinib; first compound 0.1 µM)	relative viability (Venetoclax + Lapatinib; first compound 0.3162 µM)	relative viability (Venetoclax + Lapatinib; first compound 1 µM)	relative viability (Selumetinib + Alpelisib; first compound 0.02 µM)	relative viability (Selumetinib + Alpelisib; first compound 0.06325 µM)	relative viability (Selumetinib + Alpelisib; first compound 0.2 µM)	relative viability (Selumetinib + Alpelisib; first compound 0.6325 µM)
HCC-78	0.179	0.244	0.187	0.206	0.238	0.695	0.64	0.657	0.675	0.859	0.736	0.604	0.935	0.662	0.286	0.321	0.219	0.298
HOP-62	0.725	1.04	0.493	0.904	0.634	1.08	0.86	0.732	0.636	1.29	1.12	1.02	1.01	0.896	0.86	0.962	0.965	0.465
NCI-H3122	0.797	0.619	0.576	0.568	0.683	0.882	0.805	0.801	0.754	1.15	1.04	1.05	0.986	1.05	0.551	0.492	0.353	0.366
RERF-LC-KJ	0.523	0.607	0.512	0.513	0.571	0.768	0.885	0.828	0.811	0.813	0.844	0.838	0.832	0.832	0.858	0.772	0.693	0.636
NCI-H1703	0.22	0.266	0.206	0.229	0.236	1.19	1.17	1.17	0.994	0.992	1.11	0.895	1.01	1.03	0.368	0.25	0.327	0.314
HCC-15	0.652	0.804	0.629	0.706	0.701	0.786	0.575	0.463	0.398	0.887	0.855	0.774	0.796	0.774	0.683	0.405	0.347	0.19
NCI-H1666	0.457	0.448	0.42	0.439	0.534	0.506	0.286	0.351	0.477	0.536	0.664	0.519	0.624	0.515	0.701	0.721	0.478	0.551
NCI-H1395	0.643	0.74	0.611	0.602	0.633	0.982	0.997	0.93	1.05	1.37	1.09	0.958	1.09	0.964	0.981	1.05	0.953	1.02
LCLC-97TM1	–	0.264	0.173	0.273	0.21	1.05	0.985	0.86	0.481	–	1	0.579	0.868	0.814	0.275	0.25	0.259	0.185
